In patent publication US10105357B2, “Indication of antibiotic drugs for preparation of cancer inhibition pharmaceutical composition” (LAUNX BIOMEDICAL CO., LTD., priority 2014, dated 2018):
Like-named read-outs stand apart in the source and are kept apart here.

Legend:
Format in all cases: cell-based, human
[1] = tested on: HL-60 (Acute Promyelocytic Leukemia); experiment: Cell viability analysis, leukemia HL-60; conditions: Homo sapiens, HL-60, 72 h
[2] = tested on: TSGH-8301 (Urinary Bladder Carcinoma); experiment: Cell viability analysis, bladder cancer TSGH-8301; conditions: Homo sapiens, 72 h
[3] = tested on: HeLa (Cervix Adenocarcinoma); experiment: Cell viability analysis, cervical cancer HeLa; conditions: Homo sapiens, HeLa, 72 h
[4] = tested on: PC3 (p53−) (Prostate Adenocarcinoma); experiment: Cell viability analysis, prostate cancer PC3; conditions: Homo sapiens, 72 h
[5] = tested on: LoVo (Colorectal Adenocarcinoma); experiment: Cell viability analysis, colon cancer LoVo; conditions: Homo sapiens, LoVo, 72 h, read-out: cell viability (survival rate), LoVo, drug 10 μM, 72 hours, WST-1, OD450 nm
[6] = tested on: HepG2 (Hepatocellular Carcinoma); experiment: Cell viability analysis, hepatic cancer HepG2; conditions: Homo sapiens, HepG2, 72 h
[7] = tested on: cancer cell lines; experiment: Cell viability analysis (WST-1) on cancer cell lines; conditions: drug 10 μM, 72 hours, WST-1; Table 3
[8] = tested on: MKN-45 (Gastric Adenocarcinoma); experiment: Cell viability analysis, gastric cancer MKN-45; conditions: Homo sapiens, MKN-45, 72 h
[9] = tested on: A549 (Lung Adenocarcinoma); experiment: Cell viability analysis, lung cancer A549; conditions: Homo sapiens, A549, 72 h
[10] = tested on: MCF7 (Mammary Gland, Adenocarcinoma); experiment: Cell viability analysis, breast cancer MCF7; conditions: Homo sapiens, MCF7, 72 h
[11] = tested on: AGS (Gastric Adenocarcinoma); experiment: Cell viability analysis, gastric cancer AGS; conditions: Homo sapiens, 72 h
[12] = tested on: A375 (Amelanotic Melanoma); experiment: Cell viability analysis, skin cancer A375; conditions: Homo sapiens, A-375, 72 h
[13] = tested on: HI650 (Lung Adenocarcinoma); experiment: Cell viability analysis, lung cancer HI650; conditions: Homo sapiens, NCI-H1650, 72 h
[14] = drug 10 μM, 72 hours, WST-1, OD450 nm, read-out: cell viability (survival rate), HL-60
[15] = drug 10 μM, 72 hours, WST-1, OD450 nm, read-out: cell viability (survival rate), TSGH
[16] = drug 10 μM, 72 hours, WST-1, OD450 nm, read-out: cell viability (survival rate), HeLa
[17] = drug 10 μM, 72 hours, WST-1, OD450 nm, read-out: cell viability (survival rate), PC3
[18] = drug 10 μM, 72 hours, WST-1, OD450 nm, read-out: cell viability (survival rate), HepG2
[19] = drug 10 μM, 72 hours, WST-1, OD450 nm, read-out: cell viability (survival rate), MKN-45
[20] = drug 10 μM, 72 hours, WST-1, OD450 nm, read-out: cell viability (survival rate), A549
[21] = drug 10 μM, 72 hours, WST-1, OD450 nm, read-out: cell viability (survival rate), MCF7
[22] = drug 10 μM, 72 hours, WST-1, OD450 nm, read-out: cell viability (survival rate), AGS
[23] = drug 10 μM, 72 hours, WST-1, OD450 nm, read-out: cell viability (survival rate), A375
[24] = drug 10 μM, 72 hours, WST-1, OD450 nm, read-out: cell viability (survival rate), H1650

| SMILES | viability at 10 µM [1, 14] [%] | viability at 10 µM [2, 15] [%] | viability at 10 µM [3, 16] [%] | viability at 10 µM [4, 17] [%] | viability at 10 µM [5] [%] | viability at 10 µM [6, 18] [%] | inhibition effect on different cancer cell lines [7] | viability at 10 µM [8, 19] [%] | viability at 10 µM [9, 20] [%] | viability at 10 µM [10, 21] [%] | viability at 10 µM [11, 22] [%] | viability at 10 µM [12, 23] [%] | viability at 10 µM [13, 24] [%] | other results |
| --- | --- | --- | --- | --- | --- | --- | --- | --- | --- | --- | --- | --- | --- | --- |
| CC(=O)N[C@H]1[C@H]([C@H](O)[C@H](O)CO)OC(C(=O)O)=C[C@@H]1N=C(N)N [Zanamivir (Relenza), Zanamivir] | 146 | 88.5 | 71.8 | 106 | 77.3 | 110 | significant inhibition effect | 85.8 | 93 | 69.6 | 75.1 | 51.5 | 62.7 |  |
| CC(=O)O[C@]1(C(C)=O)CC[C@H]2[C@@H]3C[C@H](C)C4=CC(=O)CC[C@]4(C)[C@H]3CC[C@@]21C [Medroxyprogesterone acetate] | 51.7 | 79.4 | 70.4 | 82 | 65.9 | 78.6 | significant inhibition effect | 66.9 | 60.5 | 69.3 | 72.3 | 81 | 38.6 |  |
| CC1(C)O[C@@H]2C[C@H]3[C@@H]4C[C@H](F)C5=CC(=O)C=C[C@]5(C)[C@@]4(F)[C@@H](O)C[C@]3(C)[C@]2(C(=O)CO)O1 [Fluocinolone acetonide (Flucort-N), Fluocinolone acetonide] | 116 | 38.3 | 46 | 40.7 | 52.3 | 74.5 | significant inhibition effect | 34.9 | 52.5 | 54.2 | 30 | 45.8 | 58.4 |  |
| Cc1cc(NS(=O)(=O)c2ccc(N)cc2)no1 [Sulfamethoxazole] |  |  |  |  | 71.7 |  | significant inhibition effect |  |  |  |  |  |  | viability at 10 µM ([1]; read-out: cell viability (survival rate), HL-60, drug 10 μM, 72 hours, WST-1, OD450 nm): 99.4%; viability at 10 µM ([2]; read-out: cell viability (survival rate), TSGH, drug 10 μM, 72 hours, WST-1, OD450 nm): 62.1%; viability at 10 µM ([3]; read-out: cell viability (survival rate), HeLa, drug 10 μM, 72 hours, WST-1, OD450 nm): 87.8%; viability at 10 µM ([4]; read-out: cell viability (survival rate), PC3, drug 10 μM, 72 hours, WST-1, OD450 nm): 44.9%; viability at 10 µM ([6]; read-out: cell viability (survival rate), HepG2, drug 10 μM, 72 hours, WST-1, OD450 nm): 115%; viability at 10 µM ([8]; read-out: cell viability (survival rate), MKN-45, drug 10 μM, 72 hours, WST-1, OD450 nm): 60.7%; viability at 10 µM ([9]; read-out: cell viability (survival rate), A549, drug 10 μM, 72 hours, WST-1, OD450 nm): 43.9%; viability at 10 µM ([10]; read-out: cell viability (survival rate), MCF7, drug 10 μM, 72 hours, WST-1, OD450 nm): 46.1%; viability at 10 µM ([11]; read-out: cell viability (survival rate), AGS, drug 10 μM, 72 hours, WST-1, OD450 nm): 67.7%; viability at 10 µM ([12]; read-out: cell viability (survival rate), A375, drug 10 μM, 72 hours, WST-1, OD450 nm): 44.3%; viability at 10 µM ([13]; read-out: cell viability (survival rate), H1650, drug 10 μM, 72 hours, WST-1, OD450 nm): 85.8% |
